Results published in patent US6444696B1, “Pyrazole derivatives P38 MAP kinase inhibitors” (Syntex (U.S.A.) LLC, priority 1998, dated 2002).

Test system: TNF-α Production In Rats
Experiment: Inhibition of LPS-induced TNF-α production in rats, in vivo assay
Set-up: species or system rat
Settings: dosed orally at 30 mg, LPS 50 μg/kg intraperitoneally after 30 min, serum TNF-α 1.5 h later
Method: The ability of the compounds of this invention to inhibit the TNF-α release, in vivo, was determined using a minor modification of the methods described in described in Zanetti, G.; Heumann, D., et. al. “Cytokine production after intravenous or peritoneal Gram-negative bacterial challenge in mice,” J. Immunol., 148, 1890, (1992) and Sekut, L., Menius, J. A., et. al., “Evaluation of the significance of elevated levels of systemic and localized tumor necrosis factor in different animal models of inflammation,” J. Lab. Clin. Med., 124, 813, (1994).
Female Sprague-Dawley rats weighing 110-140 grams (Charles River, Hollister, Calif.) were acclimated for one week. Groups containing 8 […] each were dosed orally either with the test compounds dissolved in an aqueous vehicle containing 0.9% sodium chloride, 0.5% sodium carboxymethyl-cellulose, 0.4% polysorbate 80, 0.9% benzyl alcohol (CMC vehicle) or only vehicle (control group). After 30 min., the mice were injected intraperitoneally with 50 μg/kg of LPS (Sigma, St. Louis, Mo.). After 1.5 h, the mice were sacrificed by CO2 inhalation and blood was harvested by cardiocentesis. Blood was clarified by centrifugation at 15,600×g for 5 min., and sera were transferred to clean tubes and frozen at −20° C. until analyzed for TNF-α by ELISA assay (Biosource International, Camarillo, Calif.) following the manufacturer's protocol. […]

CN1CCN(CC#Cc2cccc(C(=O)c3cnn(-c4ccc(F)cc4)c3N)c2)CC1.Cl.Cl [compound 8, 5-amino-1-(4-fluorophenyl)-4-{3-[3-(4-methylpiperazin-1-yl)prop-1-ynyl]benzoyl}pyrazole.2HCl]
% Inhibition (TNF-α content in test group relative to vehicle treated group): 86%
